Reference: patent US20050112573A1, “Method of detecting toxic substance” (priority 2001, published 2005)

System: yeast genes (level of expressed mRNA)
Assay: DNA chip analysis of expressed mRNA of yeast genes after 2 h culture with a toxic chemical substance
Type: cell-based, Saccharomyces cerevisiae S288C
Settings: for The level of expressed mRNA in the presence of chemical substance/ (ratio to absence of chemical substance): stress protein genes, DNA chip
Outline: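 S. cerevisiae S288C grown at 25° C in YPD; toxicant added at log phase at growth-inhibitory, non-lethal levels for 2 h, untreated cells as control. Poly(A) mRNA reverse-transcribed with Cy3/Cy5-dUTP, hybridized to whole-genome chip at 65° C >12 h; value is fluorescence ratio versus untreated.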

Q: Which “The level of expressed mRNA in the presence of chemical substance/absence: YOR267C” value (gene YOR267C) does the source give for CCCCC[C@H](O)CC(=O)CCc1ccc(O)c(OC)c1 [(13), gingerol] here?
A: Its value is 1.4.

Q: And the “The level of expressed mRNA in the presence of chemical substance/absence: YOR325W” value (gene YOR325W)?
A: The value was 0.6.

Q: What about the “level of expressed mRNA in the presence of chemical substance/in its absence” value (from here on “level … of chemical substance/in its absence”) (gene YOR336W) of the same compound?
A: Its value is 2.1.

Q: And the “level … of chemical substance/in its absence” value (gene YOR344C)?
A: The value was 1.8.

Q: What about the “level … of chemical substance/in its absence” value (gene YOR347C) of the same compound?
A: Its value is 1.8.

Q: What about the “The level of expressed mRNA in the presence of chemical substance/absence: YPL005W” value (gene YPL005W) of the same compound?
A: Its value is 1.2.

Q: And the “level … of chemical substance/in its absence” value (gene YPL017C)?
A: Its value is 1.9.

Q: What about the “The level of expressed mRNA in the presence of chemical substance / the level in the absence of chemical substance, yeast gene YPL107W” value (gene YPL107W, DNA chip fluorescence ratio to control without chemical, 2 hours culture with chemical, growth-inhibiting non-lethal concentration) of the same compound?
A: The value was 0.8.

Q: And the “The level of expressed mRNA in the presence of chemical substance / the level in the absence of chemical substance, yeast gene YPL138C” value (gene YPL138C, DNA chip fluorescence ratio to control without chemical, 2 hours culture with chemical, growth-inhibiting non-lethal concentration)?
A: Its value is 0.6.

Q: What about the “The level of expressed mRNA in the presence of chemical substance/absence: YPL150W” value (gene YPL150W) of the same compound?
A: The value was 2.1.

Q: What about the “The level of expressed mRNA in the presence of chemical substance/absence: YPL151C” value (gene YPL151C) of the same compound?
A: The value was 1.4.

Q: What about the “The level of expressed mRNA in the presence of chemical substance/absence: YPL152W” value (gene YPL152W) of the same compound?
A: Its value is 1.4.

Q: What about the “The level of expressed mRNA in the presence of chemical substance/absence: YPL168W” value (gene YPL168W) of the same compound?
A: The value was 1.0.

Q: What about the “The level of expressed mRNA in the presence of chemical substance/absence: YPL180W” value (gene YPL180W) of the same compound?
A: The value was 1.5.

Q: What about the “The level of expressed mRNA in the presence of chemical substance/absence: YPL188W” value (gene YPL188W) of the same compound?
A: Its value is 0.9.

Q: What about the “The level of expressed mRNA in the presence of chemical substance/absence: YPL221W” value (gene YPL221W) of the same compound?
A: Its value is 1.0.

Q: And the “The level of expressed mRNA in the presence of chemical substance/absence: YPL225W” value (gene YPL225W)?
A: Its value is 0.8.

Q: What about the “The level of expressed mRNA in the presence of chemical substance/absence: YPL249C” value (gene YPL249C) of the same compound?
A: Its value is 1.8.

Q: And the “The level of expressed mRNA in the presence of chemical substance/absence: YPL260W” value (gene YPL260W)?
A: The value was 1.4.

Q: And the “level … of chemical substance/in its absence” value (gene YPL265W)?
A: Its value is 1.1.

Q: And the “level … of chemical substance/in its absence” value (gene YPR006C)?
A: Its value is 1.8.

Q: What about the “level … of chemical substance/in its absence” value (gene YPR026W) of the same compound?
A: The value was 2.3.

Q: What about the “The level of expressed mRNA in the presence of chemical substance/absence: YPR049C” value (gene YPR049C) of the same compound?
A: The value was 1.6.

Q: And the “The level of expressed mRNA in the presence of chemical substance/absence: YPR061C” value (gene YPR061C)?
A: Its value is 1.1.

Q: And the “The level of expressed mRNA in the presence of chemical substance/absence: YPR093C” value (gene YPR093C)?
A: Its value is 1.4.

Q: What about the “The level of expressed mRNA in the presence of chemical substance/absence: YPR146C” value (gene YPR146C) of the same compound?
A: The value was 1.3.

Q: What about the “The level of expressed mRNA in the presence of chemical substance/absence: YPR148C” value (gene YPR148C) of the same compound?
A: The value was 1.2.

Q: And the “The level of expressed mRNA in the presence of chemical substance/absence: YPR150W” value (gene YPR150W)?
A: Its value is 1.4.

Q: And the “The level of expressed mRNA in the presence of chemical substance/absence: YPR158W” value (gene YPR158W)?
A: The value was 1.6.

Q: What about the “The level of expressed mRNA in the presence of chemical substance/absence: YPR169W” value (gene YPR169W) of the same compound?
A: Its value is 1.0.

Q: What about the “The level of expressed mRNA in the presence of chemical substance/absence: YPR172W” value (gene YPR172W) of the same compound?
A: Its value is 1.3.

Q: And the “The level of expressed mRNA in the presence of chemical substance/absence: YPR174C” value (gene YPR174C)?
A: The value was 1.4.

Q: What about the “The level of expressed mRNA in the presence of chemical substance/The level of expressed mRNA in the absence of chemical substance” value (yeast gene YAR010C) of the same compound?
A: Its value is 1.4.

Q: What about the “The level of expressed mRNA in the presence of chemical substance/The level of expressed mRNA in the absence of chemical substance” value (yeast gene YBL005W-A) of the same compound?
A: Its value is 2.9.

Q: What about the “The level of expressed mRNA in the presence of chemical substance/ (ratio to absence), gene YBL038W” value (yeast gene YBL038W, mitochondria-located protein genes, 2 h culture with chemical) of the same compound?
A: The value was 1.0.

Q: And the “The level of expressed mRNA in the presence of chemical substance/The level of expressed mRNA in the absence of chemical substance” value (yeast gene YBL041W)?
A: Its value is 2.6.

Q: What about the “The level of expressed mRNA in the presence of chemical substance/The level of expressed mRNA in the absence of chemical substance” value (yeast gene YBL043W) of the same compound?
A: Its value is 1.8.

Q: And the “The level of expressed mRNA in the presence of chemical substance/The level of expressed mRNA in the absence of chemical substance” value (yeast gene YBL078C)?
A: The value was 5.0.

Q: What about the “The level of expressed mRNA in the presence of chemical substance/ (ratio to absence of chemical substance)” value (yeast gene YBL093C) of the same compound?
A: The value was 2.1.

Q: And the “The level of expressed mRNA in the presence of chemical substance/ (in its absence), gene YBR036C” value (yeast gene YBR036C, ratio of DNA chip fluorescence intensity to that without chemical substance)?
A: Its value is 1.9.

Q: And the “The level of expressed mRNA in the presence of chemical substance/ (ratio to absence of chemical substance)” value (yeast gene YBR044C)?
A: Its value is 1.2.

Q: What about the “The level of expressed mRNA in the presence of chemical substance/ (ratio to absence), gene YBR122C” value (yeast gene YBR122C, mitochondria-located protein genes, 2 h culture with chemical) of the same compound?
A: Its value is 0.8.

Q: And the “The level of expressed mRNA in the presence of chemical substance/The level of expressed mRNA in the absence of chemical substance” value (yeast gene YBR214W)?
A: Its value is 2.1.

Q: And the “The level of expressed mRNA in the presence of chemical substance/ (ratio to absence), gene YBR251W” value (yeast gene YBR251W, mitochondria-located protein genes, 2 h culture with chemical)?
A: Its value is 1.0.

Q: What about the “The level of expressed mRNA in the presence of chemical substance/ (in its absence), gene YBR298C” value (yeast gene YBR298C, ratio of DNA chip fluorescence intensity to that without chemical substance) of the same compound?
A: Its value is 0.8.

Q: And the “The level of expressed mRNA in the presence of chemical substance/The level of expressed mRNA in the absence of chemical substance” value (yeast gene YCL020W)?
A: Its value is 3.0.

Q: And the “The level of expressed mRNA in the presence of chemical substance/The level of expressed mRNA in the absence of chemical substance” value (yeast gene YCL027W)?
A: Its value is 1.1.

Q: What about the “The level of expressed mRNA in the presence of chemical substance/The level of expressed mRNA in the absence of chemical substance” value (yeast gene YCR004C) of the same compound?
A: The value was 1.3.

Q: What about the “The level of expressed mRNA in the presence of chemical substance/ (ratio to absence), gene YCR046C” value (yeast gene YCR046C, mitochondria-located protein genes, 2 h culture with chemical) of the same compound?
A: The value was 1.5.

Q: And the “The level of expressed mRNA in the presence of chemical substance/The level of expressed mRNA in the absence of chemical substance” value (yeast gene YCR071C)?
A: The value was 1.3.

Q: What about the “The level of expressed mRNA in the presence of chemical substance/ (ratio to absence), gene YCR083W” value (yeast gene YCR083W, mitochondria-located protein genes, 2 h culture with chemical) of the same compound?
A: The value was 1.8.

Q: And the “The level of expressed mRNA in the presence of chemical substance/ (ratio to absence of chemical substance)” value (yeast gene YCR083W)?
A: Its value is 1.8.

Q: What about the “The level of expressed mRNA in the presence of chemical substance/The level of expressed mRNA in the absence of chemical substance” value (yeast gene YCR088W) of the same compound?
A: Its value is 1.9.

Q: What about the “The level of expressed mRNA in the presence of chemical substance/The level of expressed mRNA in the absence of chemical substance” value (yeast gene YDL008W) of the same compound?
A: The value was 2.0.

Q: What about the “The level of expressed mRNA in the presence of chemical substance/ in its absence, gene YDL067C” value (yeast gene YDL067C, energy system protein genes, 2 h culture with the chemical, ratio to control without chemical) of the same compound?
A: Its value is 0.6.

Q: What about the “The level of expressed mRNA in the presence of chemical substance/ (ratio to absence), gene YDL067C” value (yeast gene YDL067C, mitochondria-located protein genes, 2 h culture with chemical) of the same compound?
A: The value was 0.6.

Q: What about the “The level of expressed mRNA in the presence of chemical substance/ in its absence, gene YDL078C” value (yeast gene YDL078C, energy system protein genes, 2 h culture with the chemical, ratio to control without chemical) of the same compound?
A: Its value is 1.0.
